{"source": "paper PMC4339026", "about": "(Biopolymers, 2014)", "assay_type_in_all_cases": "biochemical", "key": {"ADAM10": {"molecular_target": "T1, ADAM10 (Homo sapiens, UniProt O14672)", "T1 sequence (O14672 214-748)": "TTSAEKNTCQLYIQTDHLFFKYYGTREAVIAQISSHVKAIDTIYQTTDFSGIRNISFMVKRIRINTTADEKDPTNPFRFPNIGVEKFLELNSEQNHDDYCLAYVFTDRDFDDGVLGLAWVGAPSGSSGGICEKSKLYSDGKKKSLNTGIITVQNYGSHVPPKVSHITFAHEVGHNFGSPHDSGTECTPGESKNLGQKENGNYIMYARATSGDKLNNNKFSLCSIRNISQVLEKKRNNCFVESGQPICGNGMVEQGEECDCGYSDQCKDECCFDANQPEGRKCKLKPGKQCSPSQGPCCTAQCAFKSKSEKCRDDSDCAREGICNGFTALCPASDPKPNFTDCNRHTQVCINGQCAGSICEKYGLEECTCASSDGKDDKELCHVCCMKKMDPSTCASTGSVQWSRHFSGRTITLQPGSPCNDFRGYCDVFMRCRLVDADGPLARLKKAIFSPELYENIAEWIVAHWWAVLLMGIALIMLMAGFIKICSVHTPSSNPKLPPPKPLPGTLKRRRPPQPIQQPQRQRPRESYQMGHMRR", "assay": "Selectivity testing against zinc metalloproteases: ADAM10", "conditions": "read-out: IC50 ADAM10; n = 3 Mean ± SD"}, "MMP-9": {"molecular_target": "MMP-9 (Homo sapiens, UniProt P14780)", "sequence (P14780 94-707, species assumed)": "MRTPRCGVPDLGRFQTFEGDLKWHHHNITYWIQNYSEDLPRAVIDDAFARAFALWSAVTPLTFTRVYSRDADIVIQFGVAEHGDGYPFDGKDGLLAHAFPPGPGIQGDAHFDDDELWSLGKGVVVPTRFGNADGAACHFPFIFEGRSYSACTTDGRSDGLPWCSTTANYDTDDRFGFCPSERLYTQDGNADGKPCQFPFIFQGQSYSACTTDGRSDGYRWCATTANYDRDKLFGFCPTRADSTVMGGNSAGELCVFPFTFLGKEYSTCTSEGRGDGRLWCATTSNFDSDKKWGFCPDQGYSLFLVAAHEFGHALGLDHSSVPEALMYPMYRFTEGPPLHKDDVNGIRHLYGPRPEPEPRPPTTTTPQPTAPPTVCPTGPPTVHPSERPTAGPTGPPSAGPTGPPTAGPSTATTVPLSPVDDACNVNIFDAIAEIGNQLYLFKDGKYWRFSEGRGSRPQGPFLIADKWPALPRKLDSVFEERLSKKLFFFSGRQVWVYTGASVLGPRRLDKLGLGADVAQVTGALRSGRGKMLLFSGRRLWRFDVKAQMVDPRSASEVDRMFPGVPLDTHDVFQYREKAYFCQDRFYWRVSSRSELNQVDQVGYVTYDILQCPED", "assay": "Selectivity testing against zinc metalloproteases: MMP-9", "conditions": "read-out: IC50 MMP-9; n = 3 Mean ± SD"}, "MMP-8": {"molecular_target": "MMP-8 (Homo sapiens, UniProt P22894)", "sequence (P22894 101-467, species assumed)": "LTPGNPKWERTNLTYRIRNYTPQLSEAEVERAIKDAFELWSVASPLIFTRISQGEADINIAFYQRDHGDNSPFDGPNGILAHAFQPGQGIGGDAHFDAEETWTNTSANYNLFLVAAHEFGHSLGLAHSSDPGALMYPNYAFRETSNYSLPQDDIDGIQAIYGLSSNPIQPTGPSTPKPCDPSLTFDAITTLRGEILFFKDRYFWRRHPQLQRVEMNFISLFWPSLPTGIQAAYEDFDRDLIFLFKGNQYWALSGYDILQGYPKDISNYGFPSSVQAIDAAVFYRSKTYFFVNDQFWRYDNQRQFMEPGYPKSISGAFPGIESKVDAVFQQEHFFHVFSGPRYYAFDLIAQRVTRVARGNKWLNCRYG", "assay": "Selectivity testing against zinc metalloproteases: MMP-8", "conditions": "read-out: IC50 MMP-8; n = 3 Mean ± SD"}, "ADAM17": {"molecular_target": "ADAM17 (Homo sapiens, UniProt P78536)", "sequence (P78536 215-824, species assumed)": "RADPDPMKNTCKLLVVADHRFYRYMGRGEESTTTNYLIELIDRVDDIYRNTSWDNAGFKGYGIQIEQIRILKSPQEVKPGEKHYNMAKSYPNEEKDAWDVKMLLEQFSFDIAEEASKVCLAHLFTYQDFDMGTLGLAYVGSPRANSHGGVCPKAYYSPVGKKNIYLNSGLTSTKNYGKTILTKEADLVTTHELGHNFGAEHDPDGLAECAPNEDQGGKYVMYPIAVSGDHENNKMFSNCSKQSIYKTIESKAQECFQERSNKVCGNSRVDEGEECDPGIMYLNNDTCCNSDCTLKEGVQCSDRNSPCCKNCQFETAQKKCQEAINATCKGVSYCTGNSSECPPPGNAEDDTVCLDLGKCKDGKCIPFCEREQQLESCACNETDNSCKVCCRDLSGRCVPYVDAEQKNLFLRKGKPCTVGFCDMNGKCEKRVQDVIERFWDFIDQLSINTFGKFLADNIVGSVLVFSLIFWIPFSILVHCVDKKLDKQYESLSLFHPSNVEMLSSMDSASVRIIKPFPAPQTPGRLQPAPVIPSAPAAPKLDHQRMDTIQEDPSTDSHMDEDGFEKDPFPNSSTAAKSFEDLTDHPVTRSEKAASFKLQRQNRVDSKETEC", "assay": "Selectivity testing against zinc metalloproteases: ADAM17", "conditions": "read-out: IC50 ADAM17; n = 3 Mean ± SD"}}, "data": [{"smiles": "O=C(Nc1cc(C(=O)Nc2ccc(S(=O)(=O)O)cc2S(=O)(=O)O)cc(C(=O)Nc2ccc(S(=O)(=O)O)cc2S(=O)(=O)O)c1)Nc1cc(C(=O)Nc2ccc(S(=O)(=O)O)cc2S(=O)(=O)O)cc(C(=O)Nc2ccc(S(=O)(=O)O)cc2S(=O)(=O)O)c1", "note": "[NF449, 4,4′,4″,4‴-[Carbonyl-bis[imino-5,1,3-benzenetriylbis-(carbonyl-imino)]]tetrakis(benzene-1,3-disulfonic acid)]", "values": [{"measurement": "IC50", "setting": "ADAM10", "result": "1200 ± 100", "unit": "nM"}, {"measurement": "IC50", "setting": "MMP-9", "result": "8600 ± 700", "unit": "nM"}, {"measurement": "IC50", "setting": "MMP-8", "result": "1000 ± 100", "unit": "nM"}, {"measurement": "IC50", "setting": "ADAM17", "result": "4600 ± 300", "unit": "nM"}]}]}
